# Experimental data taken from ChEMBL document CHEMBL4020788, “Synthesis, SAR and molecular docking studies of benzo[d]thiazole-hydrazones as potential antibacterial and antifungal agents” (2017).
# The source made the active and inactive calls. The rule behind the calls is not given here.
# Key:
# Format in all cases: functional
# [1] = test system: Fusarium oxysporum; test: Antifungal activity against Fusarium oxysporum at 25 ug/ml after 48 hrs by agar well diffusion method
# [2] = test system: Bacillus subtilis; test: Antibacterial activity against Bacillus subtilis at 75 ug/ml after 24 hrs by agar well diffusion method; conditions: for zone of inhibition at 75 µg/mL: read-out: DIZ
# [3] = test system: Staphylococcus aureus; test: Antibacterial activity against Staphylococcus aureus at 100 ug/ml after 24 hrs by agar well diffusion method; conditions: for zone of inhibition at 100 µg/mL: read-out: DIZ
# [4] = test system: Aspergillus niger; test: Antifungal activity against Aspergillus niger at 50 ug/ml after 48 hrs by agar well diffusion method; conditions: for zone of inhibition at 50 µg/mL: read-out: DIZ
# [5] = test system: Aspergillus niger; test: Antifungal activity against Aspergillus niger at 75 ug/ml after 48 hrs by agar well diffusion method; conditions: for zone of inhibition at 75 µg/mL: read-out: DIZ
# [6] = test system: Bacillus subtilis; test: Antibacterial activity against Bacillus subtilis at 25 ug/ml after 24 hrs by agar well diffusion method; conditions: for zone of inhibition at 25 µg/mL: read-out: DIZ
# [7] = test system: Staphylococcus aureus; test: Antibacterial activity against methicillin resistant Staphylococcus aureus MRSA090 at 25 ug/ml after 24 hrs by agar well diffusion method; conditions: MRSA090, 24 h, read-out: DIZ
# [8] = test system: Fusarium verticillioides; test: Antifungal activity against Fusarium moniliforme at 25 ug/ml after 48 hrs by agar well diffusion method; conditions: read-out: DIZ
# [9] = test system: Staphylococcus aureus; test: Antibacterial activity against Staphylococcus aureus at 50 ug/ml after 24 hrs by agar well diffusion method
# [10] = test system: Bacillus subtilis; test: Antibacterial activity against Bacillus subtilis at 100 ug/ml after 24 hrs by agar well diffusion method; conditions: for zone of inhibition at 100 µg/mL: read-out: DIZ
# [11] = test system: Escherichia coli; test: Antibacterial activity against Escherichia coli at 100 ug/ml after 24 hrs by agar well diffusion method; conditions: read-out: DIZ
# [12] = test system: Staphylococcus aureus; test: Antibacterial activity against methicillin resistant Staphylococcus aureus MRSA090 at 75 ug/ml after 24 hrs by agar well diffusion method; conditions: MRSA090, 24 h, read-out: DIZ
# [13] = test system: Fusarium verticillioides; test: Antifungal activity against Fusarium moniliforme at 50 ug/ml after 48 hrs by agar well diffusion method; conditions: read-out: DIZ
# [14] = test system: Staphylococcus aureus; test: Antibacterial activity against methicillin resistant Staphylococcus aureus MRSA090 at 50 ug/ml after 24 hrs by agar well diffusion method; conditions: MRSA090, 24 h, read-out: DIZ
# [15] = test system: Fusarium oxysporum; test: Antifungal activity against Fusarium oxysporum at 75 ug/ml after 48 hrs by agar well diffusion method; conditions: for zone of inhibition at 75 µg/mL: read-out: DIZ
# [16] = test system: Klebsiella pneumoniae; test: Antibacterial activity against Klebsiella pneumoniae at 25 ug/ml after 24 hrs by agar well diffusion method; conditions: for zone of inhibition at 25 µg/mL: read-out: DIZ
# [17] = test system: Staphylococcus aureus; test: Antibacterial activity against Staphylococcus aureus at 75 ug/ml after 24 hrs by agar well diffusion method; conditions: for zone of inhibition at 75 µg/mL: read-out: DIZ
# [18] = test system: Staphylococcus aureus; test: Antibacterial activity against methicillin resistant Staphylococcus aureus MRSA090 at 100 ug/ml after 24 hrs by agar well diffusion method; conditions: MRSA090, 24 h, read-out: DIZ
# [19] = test system: Aspergillus niger; test: Antifungal activity against Aspergillus niger at 100 ug/ml after 48 hrs by agar well diffusion method; conditions: for zone of inhibition at 100 µg/mL: read-out: DIZ
# [20] = test system: Fusarium oxysporum; test: Antifungal activity against Fusarium oxysporum at 100 ug/ml after 48 hrs by agar well diffusion method; conditions: read-out: DIZ
# [21] = test system: Klebsiella pneumoniae; test: Antibacterial activity against Klebsiella pneumoniae at 50 ug/ml after 24 hrs by agar well diffusion method; conditions: for zone of inhibition at 50 µg/mL: read-out: DIZ
# [22] = test system: Bacillus subtilis; test: Antibacterial activity against Bacillus subtilis at 50 ug/ml after 24 hrs by agar well diffusion method; conditions: for zone of inhibition at 50 µg/mL: read-out: DIZ
# [23] = test system: Klebsiella pneumoniae; test: Antibacterial activity against Klebsiella pneumoniae at 75 ug/ml after 24 hrs by agar well diffusion method; conditions: for zone of inhibition at 75 µg/mL: read-out: DIZ
# [24] = test system: Aspergillus niger; test: Antifungal activity against Aspergillus niger at 25 ug/ml after 48 hrs by agar well diffusion method; conditions: for zone of inhibition at 25 µg/mL: read-out: DIZ
# [25] = test system: Escherichia coli; test: Antibacterial activity against Escherichia coli at 50 ug/ml after 24 hrs by agar well diffusion method; conditions: for zone of inhibition at 50 µg/mL: read-out: DIZ
# [26] = test system: Klebsiella pneumoniae; test: Antibacterial activity against Klebsiella pneumoniae at 100 ug/ml after 24 hrs by agar well diffusion method; conditions: for zone of inhibition at 100 µg/mL: read-out: DIZ
# [27] = test system: Fusarium verticillioides; test: Antifungal activity against Fusarium moniliforme at 100 ug/ml after 48 hrs by agar well diffusion method; conditions: read-out: DIZ
# [28] = test system: Fusarium oxysporum; test: Antifungal activity against Fusarium oxysporum at 50 ug/ml after 48 hrs by agar well diffusion method; conditions: for zone of inhibition at 50 µg/mL: read-out: DIZ
# [29] = test system: Escherichia coli; test: Antibacterial activity against Escherichia coli at 25 ug/ml after 24 hrs by agar well diffusion method; conditions: for zone of inhibition at 25 µg/mL: read-out: DIZ
# [30] = test system: Staphylococcus aureus; test: Antibacterial activity against Staphylococcus aureus at 25 ug/ml after 24 hrs by agar well diffusion method
# [31] = test system: Escherichia coli; test: Antibacterial activity against Escherichia coli at 75 ug/ml after 24 hrs by agar well diffusion method; conditions: read-out: DIZ
# [32] = test system: Fusarium verticillioides; test: Antifungal activity against Fusarium moniliforme at 75 ug/ml after 48 hrs by agar well diffusion method; conditions: read-out: DIZ
SMILES,zone of inhibition at 25 µg/mL [7] [mm],zone of inhibition at 25 µg/mL [8] [mm],diameter of the inhibition zone (DIZ) [9],zone of inhibition at 100 µg/mL [11] [mm],zone of inhibition at 75 µg/mL [12] [mm],zone of inhibition at 50 µg/mL [13] [mm],zone of inhibition at 50 µg/mL [14] [mm],zone of inhibition at 75 µg/mL [15] [mm],zone of inhibition at 25 µg/mL [16] [mm],zone of inhibition at 100 µg/mL [18] [mm],zone of inhibition at 100 µg/mL [20] [mm],zone of inhibition at 50 µg/mL [21] [mm],zone of inhibition at 75 µg/mL [23] [mm],zone of inhibition at 50 µg/mL [25] [mm],zone of inhibition at 100 µg/mL [26] [mm],zone of inhibition at 100 µg/mL [27] [mm],zone of inhibition at 25 µg/mL [29] [mm],diameter of the inhibition zone (DIZ) [30],zone of inhibition at 75 µg/mL [31] [mm],zone of inhibition at 75 µg/mL [32] [mm],also measured
Cc1cccc2nc(N/N=C/c3ccc[nH]3)sc12,4,4,inactive,24,11,9,8,10,10,17,15,14,19,17,23,18,12,inactive,22,14,diameter of the inhibition zone (DIZ) [1]: inactive; diameter of the inhibition zone (DIZ) [2]: inactive; diameter of the inhibition zone (DIZ) [3]: inactive; diameter of the inhibition zone (DIZ) [4]: inactive; diameter of the inhibition zone (DIZ) [5]: inactive; diameter of the inhibition zone (DIZ) [6]: inactive; diameter of the inhibition zone (DIZ) [10]: inactive; diameter of the inhibition zone (DIZ) [17]: inactive; diameter of the inhibition zone (DIZ) [19]: inactive; diameter of the inhibition zone (DIZ) [22]: inactive; diameter of the inhibition zone (DIZ) [24]: inactive; diameter of the inhibition zone (DIZ) [28]: inactive
Cc1cccc2nc(N/N=C/c3ccc(Br)cc3)sc12,9,12,inactive,14,15,17,11,23,6,19,29,11,14,7,17,28,3,inactive,11,24,zone of inhibition at 25 µg/mL ([1]; read-out: DIZ): 13 mm; zone of inhibition at 75 µg/mL [2]: 11 mm; zone of inhibition at 100 µg/mL [3]: 9 mm; zone of inhibition at 50 µg/mL [4]: 18 mm; zone of inhibition at 75 µg/mL [5]: 23 mm; zone of inhibition at 25 µg/mL [6]: 4 mm; zone of inhibition at 100 µg/mL [10]: 13 mm; zone of inhibition at 75 µg/mL [17]: 5 mm; zone of inhibition at 100 µg/mL [19]: 28 mm; zone of inhibition at 50 µg/mL [22]: 7 mm; zone of inhibition at 25 µg/mL [24]: 14 mm; zone of inhibition at 50 µg/mL [28]: 18 mm
COc1ccc(/C=N/Nc2nc3cccc(C)c3s2)cc1Br,8,7,inactive,16,16,11,12,,7,18,10,11,14,9,16,17,7,inactive,13,13,diameter of the inhibition zone (DIZ) [1]: inactive; zone of inhibition at 75 µg/mL [2]: 11 mm; diameter of the inhibition zone (DIZ) [3]: inactive; zone of inhibition at 50 µg/mL [4]: 11 mm; zone of inhibition at 75 µg/mL [5]: 14 mm; zone of inhibition at 25 µg/mL [6]: 4 mm; zone of inhibition at 100 µg/mL [10]: 16 mm; diameter of the inhibition zone (DIZ) [15]: inactive; diameter of the inhibition zone (DIZ) [17]: inactive; zone of inhibition at 100 µg/mL [19]: 18 mm; zone of inhibition at 50 µg/mL [22]: 8 mm; zone of inhibition at 25 µg/mL [24]: 8 mm; diameter of the inhibition zone (DIZ) [28]: inactive
Cc1cccc2nc(N/N=C/c3ccc(Cl)cc3)sc12,4,11,,10,12,14,9,14,,15,17,,,,,26,,,6,20,zone of inhibition at 75 µg/mL [2]: 11 mm; zone of inhibition at 100 µg/mL [3]: 13 mm; zone of inhibition at 50 µg/mL [4]: 13 mm; zone of inhibition at 75 µg/mL [5]: 16 mm; zone of inhibition at 25 µg/mL [6]: 7 mm; zone of inhibition at 50 µg/mL ([9]; read-out: DIZ): 9 mm; zone of inhibition at 100 µg/mL [10]: 14 mm; diameter of the inhibition zone (DIZ) [16]: inactive; zone of inhibition at 75 µg/mL [17]: 11 mm; zone of inhibition at 100 µg/mL [19]: 19 mm; diameter of the inhibition zone (DIZ) [21]: inactive; zone of inhibition at 50 µg/mL [22]: 9 mm; diameter of the inhibition zone (DIZ) [23]: inactive; zone of inhibition at 25 µg/mL [24]: 8 mm; diameter of the inhibition zone (DIZ) [25]: inactive; diameter of the inhibition zone (DIZ) [26]: inactive; zone of inhibition at 50 µg/mL [28]: 11 mm; diameter of the inhibition zone (DIZ) [29]: inactive; zone of inhibition at 25 µg/mL ([30]; read-out: DIZ): 5 mm
